Test results reported in patent US12128035B2, “Activating pyruvate kinase R” (Novo Nordisk Health Care AG, priority 2021, dated 2024).

Tested on: ATP blood levels
Test: Phase 1 SAD/MAD: blood ATP (LC-MS/MS) in healthy volunteers
Assay type: in vivo, human
Conditions: for Median Percentage Change in ATP Levels / Mean Percentage Change in ATP Levels: HV 400 mg QD
Experimental: In this study, SAD/MAD cohorts are randomized (3 to 1) to receive Compound 1 or placebo (P). Compound 1 was evaluated first in 4 healthy SAD cohorts and 4 healthy MAD (14-day dosing period) cohorts. Based on the safety, and PK/PD profile from HS, Compound 1 is then evaluated in 1 SCD SAD cohort and 2 SCD MAD cohorts. Specifically, based on the safety and pharmacokinetic/pharmacodynamics (PK/PD) profile in healthy volunteer studies, Compound 1 is evaluated in patients (pts) with SCD, first in a single dose (SD or SAD) cohort and then in multiple-dose (MD or MAD) cohorts (14-day and 12-week). Safety assessments include AEs, vital signs, ECGs and laboratory parameters. PK/PD blood sampling was performed on Day 1 (SAD/MAD) and Day 14 (MAD) and up to 72 h after the last dose and at the end-of-study visit. PD parameters included 2,3-DPG, ATP, and p50 in all cohorts with additional PD studies (including oxygen scan) performed only in the SCD cohorts. PD parameters included 2,3-DPG, ATP, p50, RBC deformability with controlled deoxygenation and reoxygenation (Lorrca® oxygen scan) and varying osmolality (Lorrca® osmoscan)). To maintain study blind, pt identifiers were removed when needed.
In the MAD cohorts, the subjects' blood ATP levels were measured […] by a qualified LC-MS/MS method for the quantitation of ATP in blood. […] Table 20A reports the median percentage change in blood ATP levels, relative to baseline, measured over time after the first dose on days 1 and 14 in healthy volunteers who received daily doses of Compound 1 (100 mg BID, 200 mg BID, 300 mg BID, or 400 mg QD) or placebo for 14 days. Table 20B reports the mean percentage change in ATP blood levels, relative to baseline, measured over time after the first dose on days 1 and 14 in healthy volunteers who received daily doses of Compound 1 (100 mg BID, 200 mg BID, 300 mg BID, or 400 mg QD) for 14 days.
The following procedures are employed for the analysis of ATP and 2,3-DPG in human whole blood K2EDTA using a protein precipitation extraction procedure and analysis by LC-MS/MS.
The following procedures are used for sample extraction prior to analysis via LC-MS/MS. 15.0 μL of the calibration standards, quality controls, matrix blanks, and samples are aliquoted into a 96-well plate. 50.0 μL of the internal standard spiking solution is added to all samples on the plate, with the exception of the matrix blank samples; 50.0 μL of water is added to the matrix blank samples. Subsequently, 150 μL of water is added to all samples on the plate. The plate is then covered and agitated by vortex at high speed for ten minutes, after which 750 μL of methanol is added to all samples on the plate. The plate is covered and agitated by vortex for approximately 1 minute. The plate is then centrifuged at approximately 3500 RPM at approximately 4° C. for five minutes. After centrifugation, a liquid handler is used to transfer 50 μL of each sample to a new 96-well plate, and 200 μL of acetonitrile is added to all samples on the plate. The newly prepared plate is covered and agitated by vortex for approximately 1 minute. The plate is then centrifuged at approximately 3500 RPM at approximately 4° C. for 2 minutes.

[1] = Day 1, 24 h after first daily dose
[2] = Day 14, 0 h after first daily dose
[3] = Day 14, 6 h after first daily dose
[4] = Day 14, 8 h after first daily dose
[5] = Day 14, 12 h after first daily dose
[6] = Day 14, 16 h after first daily dose
[7] = Day 14, 24 h after first daily dose
[8] = Day 14, 48 h after first daily dose
[9] = Day 14, 72 h after first daily dose
[10] = HV single 200 mg, 0 h after dose
[11] = HV single 200 mg, 6 h after dose
[12] = HV single 200 mg, 8 h after dose
[13] = HV single 200 mg, 12 h after dose
[14] = HV single 200 mg, 16 h after dose
[15] = HV single 200 mg, 24 h after dose
[16] = HV single 200 mg, 36 h after dose
[17] = HV single 200 mg, 48 h after dose
[18] = HV single 200 mg, 72 h after dose
[19] = HV single 400 mg, 0 h after dose
[20] = HV single 400 mg, 6 h after dose
[21] = HV single 400 mg, 8 h after dose
[22] = HV single 400 mg, 12 h after dose
[23] = HV single 400 mg, 16 h after dose
[24] = HV single 400 mg, 24 h after dose
[25] = HV single 400 mg, 36 h after dose
[26] = HV single 400 mg, 48 h after dose
[27] = HV single 400 mg, 72 h after dose
[28] = HV single 700 mg, 0 h after dose
[29] = HV single 700 mg, 6 h after dose
[30] = HV single 700 mg, 8 h after dose
[31] = HV single 700 mg, 12 h after dose
[32] = HV single 700 mg, 16 h after dose
[33] = HV single 700 mg, 24 h after dose
[34] = HV single 700 mg, 36 h after dose
[35] = HV single 700 mg, 48 h after dose
[36] = HV single 700 mg, 72 h after dose
[37] = HV single 1000 mg, 0 h after dose
[38] = HV single 1000 mg, 6 h after dose
[39] = HV single 1000 mg, 8 h after dose
[40] = HV single 1000 mg, 12 h after dose
[41] = HV single 1000 mg, 16 h after dose
[42] = HV single 1000 mg, 24 h after dose
[43] = HV single 1000 mg, 36 h after dose
[44] = HV single 1000 mg, 48 h after dose
[45] = HV single 1000 mg, 72 h after dose

With `O=C([C@H](CO)c1ccccc1)N1CC2=C(C1)CN(S(=O)(=O)c1cnc3c(c1)OCCO3)C2` (single isomer, unassigned) [Compound 1] the “Median Percentage Change in ATP Levels” value (Day 1, 16 h after first daily dose) was −1.8%, the “Mean Percentage Change in ATP Levels” value [1] was 1.9% and the “Median Percentage Change in ATP Levels” value [1] was 0.0%. For the same compound, the “Mean Percentage Change in ATP Levels” value [2] was 54%, the “Median Percentage Change in ATP Levels” value [2] was 52% and the “Mean Percentage Change in ATP Levels” value [3] was 48%. The “Median Percentage Change in ATP Levels” value [3] was 52%, the “Mean Percentage Change in ATP Levels” value [4] was 51% and the “Median Percentage Change in ATP Levels” value [4] was 52%. The “Mean Percentage Change in ATP Levels” value [5] was 50%, the “Median Percentage Change in ATP Levels” value [5] was 56% and the “Mean Percentage Change in ATP Levels” value [6] was 51%. For the same compound, the “Median Percentage Change in ATP Levels” value [6] was 51%, the “Mean Percentage Change in ATP Levels” value [7] was 57% and the “Median Percentage Change in ATP Levels” value [7] was 52%. For the same compound, the “Mean Percentage Change in ATP Levels” value [8] was 60%, the “Median Percentage Change in ATP Levels” value [8] was 61% and the “Mean Percentage Change in ATP Levels” value [9] was 51%. The “Median Percentage Change in ATP Levels” value [9] was 54%, the “Mean Maximum Percent Change from Baseline, ATP” value (HV MAD, all doses and timepoints (N = 36)) was 68.5% and the “Mean Maximum Percent Change from Baseline, ATP” value (HV SAD, all doses and timepoints (N = 24)) was 24.4%. For the same compound, the “mean percentage change in ATP blood levels” value [10] was 0%, the “median percentage change in ATP blood levels” value [10] was 0% and the “mean percentage change in ATP blood levels” value [11] was 0.7%. For the same compound, the “median percentage change in ATP blood levels” value [11] was −4.5%, the “mean percentage change in ATP blood levels” value [12] was −2.1% and the “median percentage change in ATP blood levels” value [12] was −1.7%. For the same compound, the “mean percentage change in ATP blood levels” value [13] was 2.0%, the “median percentage change in ATP blood levels” value [13] was 1.7% and the “mean percentage change in ATP blood levels” value [14] was −6.9%. For the same compound, the “median percentage change in ATP blood levels” value [14] was −6.6%, the “mean percentage change in ATP blood levels” value [15] was 3.4% and the “median percentage change in ATP blood levels” value [15] was 4.7%. The “mean percentage change in ATP blood levels” value [16] was 6.2%, the “median percentage change in ATP blood levels” value [16] was 4.1% and the “mean percentage change in ATP blood levels” value [17] was 2.0%. For the same compound, the “median percentage change in ATP blood levels” value [17] was −2.4%, the “mean percentage change in ATP blood levels” value [18] was 12% and the “median percentage change in ATP blood levels” value [18] was 11%. The “mean percentage change in ATP blood levels” value [19] was 0%, the “median percentage change in ATP blood levels” value [19] was 0% and the “mean percentage change in ATP blood levels” value [20] was 2.2%. For the same compound, the “median percentage change in ATP blood levels” value [20] was 4.1%, the “mean percentage change in ATP blood levels” value [21] was −2.5% and the “median percentage change in ATP blood levels” value [21] was −8.8%. For the same compound, the “mean percentage change in ATP blood levels” value [22] was 5.6%, the “median percentage change in ATP blood levels” value [22] was 7.2% and the “mean percentage change in ATP blood levels” value [23] was 5.6%. The “median percentage change in ATP blood levels” value [23] was 4.5%, the “mean percentage change in ATP blood levels” value [24] was 15% and the “median percentage change in ATP blood levels” value [24] was 13%. For the same compound, the “mean percentage change in ATP blood levels” value [25] was 18%, the “median percentage change in ATP blood levels” value [25] was 16% and the “mean percentage change in ATP blood levels” value [26] was 14%. The “median percentage change in ATP blood levels” value [26] was 14%, the “mean percentage change in ATP blood levels” value [27] was 14% and the “median percentage change in ATP blood levels” value [27] was 18%. For the same compound, the “mean percentage change in ATP blood levels” value [28] was 0%, the “median percentage change in ATP blood levels” value [28] was 0% and the “mean percentage change in ATP blood levels” value [29] was −2.8%. For the same compound, the “median percentage change in ATP blood levels” value [29] was −2.6%, the “mean percentage change in ATP blood levels” value [30] was −2.9% and the “median percentage change in ATP blood levels” value [30] was −1.6%. The “mean percentage change in ATP blood levels” value [31] was −5.5%, the “median percentage change in ATP blood levels” value [31] was −5.4% and the “mean percentage change in ATP blood levels” value [32] was −1.3%. For the same compound, the “median percentage change in ATP blood levels” value [32] was −2.4%, the “mean percentage change in ATP blood levels” value [33] was 13% and the “median percentage change in ATP blood levels” value [33] was 12%. For the same compound, the “mean percentage change in ATP blood levels” value [34] was 4.5%, the “median percentage change in ATP blood levels” value [34] was 3.6% and the “mean percentage change in ATP blood levels” value [35] was 2.5%. For the same compound, the “median percentage change in ATP blood levels” value [35] was 0%, the “mean percentage change in ATP blood levels” value [36] was 10% and the “median percentage change in ATP blood levels” value [36] was 5.1%. The “mean percentage change in ATP blood levels” value [37] was 0%, the “median percentage change in ATP blood levels” value [37] was 0% and the “mean percentage change in ATP blood levels” value [38] was −1.7%. For the same compound, the “median percentage change in ATP blood levels” value [38] was 5.1%, the “mean percentage change in ATP blood levels” value [39] was 4.0% and the “median percentage change in ATP blood levels” value [39] was 3.1%. The “mean percentage change in ATP blood levels” value [40] was 2.9%, the “median percentage change in ATP blood levels” value [40] was 7.3% and the “mean percentage change in ATP blood levels” value [41] was 6.9%. For the same compound, the “median percentage change in ATP blood levels” value [41] was 2.4%, the “mean percentage change in ATP blood levels” value [42] was 12% and the “median percentage change in ATP blood levels” value [42] was 14%. The “mean percentage change in ATP blood levels” value [43] was 13%, the “median percentage change in ATP blood levels” value [43] was 16% and the “mean percentage change in ATP blood levels” value [44] was 14%. The “median percentage change in ATP blood levels” value [44] was 10%, the “mean percentage change in ATP blood levels” value [45] was 22% and the “median percentage change in ATP blood levels” value [45] was 20%. The “lag of maximum increase in blood ATP behind maximum plasma concentration” value (HV single 200, 400, 700 or 1000 mg) was “at least 24 hours”.
